Laboratory results as given in patent US7767240B2, “Microbiological control in poultry processing” (priority 2001, dated 2010).
Several values for one entry are separate records, joined by “and”; a condition that tells them apart may be missing. Equal entries are not always repeated.

Experiments:
Assay type in all cases: cell-based
[1] = test system: Pseudomonas aeruginosa (ATCC 15442) biofilm; assay: MBEC biofilm eradication test (Calgary biofilm device); conditions: one-hour biocide contact time; for MBEC (minimum biofilm eradication concentration): individual determinations
Excerpt: Table 45 summarizes test results performed at MBEC Biofilm Technologies, Inc., Calgary, Canada on the effectiveness of various biocides on biofilm removal. The test procedure, developed at the University of Calgary, utilizes a device which allows the growth of 96 identical biofilms under carefully controlled conditions. The device consists of a two-part vessel comprised of an upper plate containing 96 pegs that seals against a bottom plate. The bottom plate can consist of either a trough (for biofilm growth) or a standard 96-well plate (for biocide challenge). The biofilms develop on the 96 pegs. The device has been used as a general method for evaluating the efficacy of antibiotics and biocides towards biofilms. See in this connection H. Ceri, et al., “The MBEC Test: A New In Vitro Assay Allowing Rapid Screening for Antibiotic Sensitivity of Biofilm”, Proceedings of the ASM, 1998, 89, 525; Ceri, et al., “Antifungal and Biocide Susceptibility testing of Candida Biofilms using the MBEC Device”, Proceedings of the Interscience Conference on Antimicrobial Agents and Chemotherapy, 1998, 38, 495; and H. Ceri, et al., “The Calgary Biofilm Device: A New Technology for the Rapid Determination of Antibiotic Susceptibility of Bacterial Biofilms”, Journal of Clinical Microbiology, 1999, 37, 1771-1776.
Six biocide systems were evaluated using the above test procedure and test equipment. Five of these systems were oxidizing biocides, viz., chlorine (from NaOCl), halogen (from NaOCl+NaBr), halogen (from BCDMH), bromine (from DBDMH), and chlorine (from trichloroisocyanuric acid), all expressed as bromine as Br2 in mg/L, so that all test results were placed on the same basis. The sixth biocide was glutaraldehyde, a non-oxidizing biocide.
These biocide systems were used to challenge biofilms of Pseudomonas aeruginosa (ATCC 15442). This is a Gram (−) bacterium which is ubiquitous in microbiological slimes found in many water systems. See in this connection J. W. Costerton and H. Anwar, “Pseudomonas aeruginosa: The Microbe and Pathogen”, in Pseudomonas aeruginosa Infections and Treatment, A. L. Baltch and R. P. Smith editors, Marcel Dekker publishers, New York, 1994. In the field of poultry processing, S. Notermans, J. Dormans, and G. C. Mead, Biofouling, 1991, Vol. 5, pages 21-36, report observation of biofilms in poultry slaughter houses by use of scanning electron microscopy.
In Table 45 the MBEC (minimum biofilm eradication concentration) results presented are for the one-hour biocide contact time used in the test. The values given for the halogen containing biocides are expressed in terms of mg/L of bromine as Br2. The data on the glutaraldehyde is in terms of mg/L as active ingredient. […] In fact, only slightly more than one-half as much bromine from DBDMH was required to remove the biofilm as compared to the total halogen, expressed as Br2, that was required from BCDMH.

[2] = test system: Escherichia coli field strain; assay: Carcass total bacteria count after 1.5-hour chill tank immersion (Example 1); conditions: average of 10 birds; for Mean Bacteria Reduction (carcass): 1.5 h chill tank
Excerpt: (§1) The effect of these treatments on the residual chill tank water was also investigated. Carcasses were first immersed in a warm bath containing 10^4 E coli per mL of liquid. Carcasses were then immersed in chill tanks containing normal organic fluids (blood, fat, skin, and meat particles) and containing one of the respective microbiocidal compositions under test. Total bacteria count of whole bird (both inside and outside) was used to determine efficacy of various microbiocidal compositions. […] Albemarle Corporation). The trial events and experimental design used were as follows: • a) For all treatments a total of 190 birds were processed in a normal fashion. […] This was best done by grasping the broiler carcass with one hand and the closed top of the bag with the other then rocking with a reciprocal motion in a 18-24 inch arc, assuring that all carcass surfaces (interior and exterior) were rinsed. • h) The rinse solutions were then transferred from each stomacher bag into individual sample bottles, taking care to ensure that the information on the date of collection, time of collection, and treatment group matched that of the sample. Each bottle was sealed with parafilm and stored in a refrigerator. • i) Dilution of the fluids was conducted such that a 25-250 count was present on the MacConkey plate. […] Poultry carcass microbial contamination measurement was achieved by the complete washing of the entire carcass surface (inside and outside) using suitable sterile stripping solution followed by collection and plating of the stripping solution for bacterial enumeration.

[3] = test system: Escherichia coli field strain; assay: Chill water bacteria count (Example 1); conditions: bacteria count per mL of treatment water
Excerpt: as §1

[4] = 50 ppm Cl2 equivalent (Aquatize: 50 ppm sodium chlorite)
[5] = 100 ppm Cl2 equivalent (Aquatize: 100 ppm sodium chlorite)
[6] = 150 ppm Cl2 equivalent (Aquatize: 150 ppm sodium chlorite)

Q: With `O=CCCCC=O` [Glutaraldehyde, glutaraldehyde] as the molecule, how does the “MBEC, avg.” value [1] read?
A: 50 mg/L as active ingredient

Q: What about the “MBEC (minimum biofilm eradication concentration)” value [1] of the same molecule?
A: 50, 50 mg/L as active ingredient

Q: With `[Na+].[O-]Cl` [NaOCl] as the molecule, how does the “MBEC, avg.” value [1] read?
A: 3.8 mg/L of bromine as Br2

Q: What about the “MBEC (minimum biofilm eradication concentration)” value [1] of the same molecule?
A: 5.0 mg/L of bromine as Br2 and 2.5 mg/L of bromine as Br2

Q: `[Br-].[Na+]` [Sodium bromide, sodium bromide] was tested. Which “Mean Bacteria Reduction (carcass)” value ([2]; 50 ppm Cl2 equivalent (Aquatize: 50 ppm sodium chlorite), control carcass 2.67 × 10^5 total count) did it give?
A: 92

Q: What about the “Mean Bacteria Reduction Count (carcass)” value [2, 4] of the same molecule?
A: 92

Q: And the “Percent Bacteria Reduction From Control (carcass)” value [2, 4]?
A: 0.034%

Q: What about the “Mean Bacteria Reduction (carcass)” value [2, 5] of the same molecule?
A: 6.54 × 10^2

Q: And the “Mean Bacteria Reduction Count (carcass)” value [2, 5]?
A: 654

Q: What about the “Percent Bacteria Reduction From Control (carcass)” value [2, 5] of the same molecule?
A: 0.245%

Q: What about the “Mean Bacteria Reduction (carcass)” value [2, 6] of the same molecule?
A: 1.73 × 10^3

Q: And the “Mean Bacteria Reduction Count (carcass)” value [2, 6]?
A: 1,730

Q: What about the “Percent Bacteria Reduction From Control (carcass)” value [2, 6] of the same molecule?
A: 0.648%

Q: And the “Chill Water Bacteria Count (Mean Bacteria Reduction)” value ([3]; 50 ppm Cl2 equivalent (Aquatize: 50 ppm sodium chlorite), negative control 5.11 × 10^3)?
A: 4.67 × 10^3 per mL

Q: And the “Chill Water Bacteria Count (Mean Bacteria Reduction)” value [3, 5]?
A: 3.49 × 10^3 per mL

Q: What about the “Chill Water Bacteria Count (Mean Bacteria Reduction)” value [3, 6] of the same molecule?
A: 2.23 × 10^3 per mL

Q: Which results are given for `O=c1n(Cl)c(=O)n(Cl)c(=O)n1Cl` [Trichloroisocyanuric acid, trichloroisocyanuric acid]?
A: MBEC, avg. [1]: 2.0 mg/L of bromine as Br2; MBEC (minimum biofilm eradication concentration) [1]: 2.6 mg/L of bromine as Br2 and 1.3 mg/L of bromine as Br2
